{"source": "patent US12383545B1", "about": "“Treatment of migraine” (priority 2018, dated 2025)", "key": {"Alkaline Phosphatase": {"system": "Alkaline Phosphatase", "assay": "Example 5: postbaseline hepatic laboratory parameter values of clinical interest, Alkaline Phosphatase", "format": "in vivo, human", "conditions": "Atogepant 60 mg QD (N = 186), safety population", "source_text": "This study consisted of a 4-week screening and baseline period and a 12-week double-blind treatment period, which was followed by a 4-week safety follow-up period. Total study duration is 20-weeks.\nTo be randomized, eligible patients had to be 18 to 75 years of age (inclusive), have a history of migraine with or without aura for at least 1 year consistent with a diagnosis according to the International Classification of Headache Disorders criteria, 3rd edition, beta version, have experienced 4 to 14 migraine/probable migraine headache days and <15 headache days in the 28-day baseline period. Patients who had clinically significant hematologic, endocrine, cardiovascular, cerebrovascular, pulmonary, renal, hepatic, gastrointestinal, or neurologic disease were excluded from the study.\nA total of 834 patients were randomized to double-blind treatment (ITT population), and 825 patients took at least 1 dose of double-blind IP (safety population). […] The primary efficacy variable was the change from baseline in mean monthly migraine/probable migraine headache days across the 12-week treatment period. The secondary efficacy variables were the change from baseline in mean monthly headache days across the 12-week treatment period, proportion of patients with at least a 50% reduction in mean monthly migraine/probable migraine headache days across the 12-week treatment period, and the change from baseline in mean monthly acute medication use days across the 12-week treatment period."}, "[1]": {"assay": "Atogepant oral pharmacokinetics", "format": "in vivo", "conditions": "administered orally"}, "[2]": {"system": "participants with episodic migraine", "assay": "Study A: Patient Global Impression of Change (PGI-C) and satisfaction with study medication", "format": "in vivo, human", "conditions": "for PGI-C responders (“much better” or “very much better”), percentage / Satisfaction with study medication (“satisfied” or “extremely satisfied”), percentage: Week 12, mITT; for PGI-C response, OR (95% CI) vs placebo / Satisfaction with study medication, OR (95% CI) vs placebo: week 12", "source_text": "Additional prespecified responder analyses included the Patient Global Impression of Change (PGI-C), defined as “much better” or “very much better” at week 12, and satisfaction with study medication, defined as “satisfied” or “extremely satisfied” at weeks 4, 8, and 12."}, "ALT or AST": {"system": "ALT or AST", "assay": "Study A: postbaseline hepatic laboratory parameters (ALT or AST, potential Hy's Law)", "format": "in vivo, human", "conditions": "safety population; for ALT or AST >=1 * ULN, n/N1 (%) / ALT or AST >=1.5 * ULN, n/N1 (%) / ALT or AST >=2 * ULN, n/N1 (%) / ALT or AST >=5 * ULN, n/N1 (%) / ALT or AST >=10 * ULN, n/N1 (%) / ALT or AST >=20 * ULN, n/N1: postbaseline", "method": "Adverse events were reported by participants throughout the trial, and at a 4-week follow-up visit. Adverse event information was collected and documented during each clinic visit. Participants could also report adverse events via telephone call between visits. Causality of each adverse event was determined by the investigator who was blinded to the treatment. In addition, clinical laboratory tests, vital signs, electrocardiograms (ECG), and Columbia-Suicide Severity Rating Scale were evaluated. Based on the potential hepatotoxicity of prior gepants, treatment-emergent elevations in ALT or AST ≥3 times the upper limit of normal, as well as potential Hy's law cases, were evaluated as prespecified adverse events of special interest and were reviewed by an independent panel of liver experts blinded to treatment (see, e.g., Negro A et al., CGRP Receptor Antagonists: an expanding drug class for acute migraine? Expert Opin Investig Drugs 2012; 21:807-18; Messina R et al., CGRP—a target for acute therapy in migraine: Clinical Data. Cephalalgia 2019; 39:420-7).\nThere were no hepatic safety issues identified in this trial. ALT and/or AST increases were low across all atogepant doses and occurred at a lower rate than placebo. […] No cases of liver disease were reported, and no case met the criteria for potential Hy's Law following daily dosing for 12 weeks."}, "[3]": {"conditions": "week 12, range across atogepant groups"}}, "note": "“And” between values parts separate entries of the source, which are not always exact repeats. Equal values may be shown once."}
{"smiles": "C[C@@H]1[C@H](c2c(F)ccc(F)c2F)C[C@H](NC(=O)c2cnc3c(c2)C[C@@]2(C3)C(=O)Nc3ncccc32)C(=O)N1CC(F)(F)F", "note": "[atogepant]", "values": [{"measurement": "Participants with postbaseline Alkaline Phosphatase (U/L) >=3 * ULN, n/N1", "setting": "Alkaline Phosphatase", "value": 0}, {"measurement": "Participants with postbaseline Alkaline Phosphatase (U/L) >=5 * ULN, n/N1", "setting": "Alkaline Phosphatase", "value": 0}, {"measurement": "Participants with postbaseline Alkaline Phosphatase (U/L) >=10 * ULN, n/N1", "setting": "Alkaline Phosphatase", "value": 0}, {"measurement": "Participants with postbaseline Alkaline Phosphatase (U/L) >=20 * ULN, n/N1", "setting": "Alkaline Phosphatase", "value": 0}, {"measurement": "time to maximum plasma concentrations", "setting": "[1]", "value": "≤ 2", "unit": "h"}, {"measurement": "half-life", "setting": "[1]; plasma, po", "value": "~11", "unit": "h"}, {"measurement": "PGI-C responders (“much better” or “very much better”), percentage", "setting": "[2]; 10 mg", "value": 72.1, "unit": "%"}, {"measurement": "Satisfaction with study medication (“satisfied” or “extremely satisfied”), percentage", "setting": "[2]; 10 mg", "value": 77.7, "unit": "%"}, {"measurement": "PGI-C response, OR (95% CI) vs placebo", "setting": "[2]; 10 mg", "value": 3.05}, {"measurement": "Satisfaction with study medication, OR (95% CI) vs placebo", "setting": "[2]; 10 mg", "value": 2.77}, {"measurement": "PGI-C responders (“much better” or “very much better”), percentage", "setting": "[2]; 30 mg", "value": 73.2, "unit": "%"}, {"measurement": "Satisfaction with study medication (“satisfied” or “extremely satisfied”), percentage", "setting": "[2]; 30 mg", "value": 80.3, "unit": "%"}, {"measurement": "PGI-C response, OR (95% CI) vs placebo", "setting": "[2]; 30 mg", "value": 3.33}, {"measurement": "Satisfaction with study medication, OR (95% CI) vs placebo", "setting": "[2]; 30 mg", "value": 3.44}, {"measurement": "PGI-C responders (“much better” or “very much better”), percentage", "setting": "[2]; 60 mg", "value": 76.1, "unit": "%"}, {"measurement": "Satisfaction with study medication (“satisfied” or “extremely satisfied”), percentage", "setting": "[2]; 60 mg", "value": 82.6, "unit": "%"}, {"measurement": "PGI-C response, OR (95% CI) vs placebo", "setting": "[2]; 60 mg", "value": 3.83}, {"measurement": "Satisfaction with study medication, OR (95% CI) vs placebo", "setting": "[2]; 60 mg", "value": 3.58}, {"measurement": "odds of achieving PGI-C response, times that of placebo", "setting": "[2]; each atogepant group", "value": "≥ 3", "unit": "times"}, {"measurement": "odds for being treatment satisfaction responders, times greater than placebo", "setting": "[2]; week 12, atogepant groups", "value": "2-4 times"}, {"measurement": "proportion of patients satisfied with treatment", "setting": "[2]; [3]", "value": "78%-83%"}, {"measurement": "proportion of patients who were PGI-C responders", "setting": "[2]; [3]", "value": "72%-76% and 70-80%"}, {"measurement": "ALT or AST >=1 * ULN, n/N1 (%)", "setting": "ALT or AST; 10 mg QD", "value": "(8.6) %"}, {"measurement": "ALT or AST >=1.5 * ULN, n/N1 (%)", "setting": "ALT or AST; 10 mg QD", "value": "(1.4) %"}, {"measurement": "ALT or AST >=2 * ULN, n/N1 (%)", "setting": "ALT or AST; 10 mg QD", "value": "(0.9) %"}, {"measurement": "ALT or AST >=5 * ULN, n/N1 (%)", "setting": "ALT or AST; 10 mg QD", "value": "(0.5) %"}, {"measurement": "ALT or AST >=10 * ULN, n/N1 (%)", "setting": "ALT or AST; 10 mg QD", "value": "(0.5) %"}, {"measurement": "ALT or AST >=20 * ULN, n/N1", "setting": "ALT or AST; 10 mg QD", "value": 0}, {"measurement": "Potential Hy's Law (ALT or AST >= 3 * ULN AND Bilirubin Total >= 2 * ULN AND ALP < 2 * ULN), n/N1", "setting": "ALT or AST; 10 mg QD", "value": 0}, {"measurement": "ALT or AST >=1 * ULN, n/N1 (%)", "setting": "ALT or AST; 30 mg QD", "value": "(8.0) %"}, {"measurement": "ALT or AST >=1.5 * ULN, n/N1 (%)", "setting": "ALT or AST; 30 mg QD", "value": "(3.1) %"}, {"measurement": "ALT or AST >=2 * ULN, n/N1 (%)", "setting": "ALT or AST; 30 mg QD", "value": "(0.9) %"}, {"measurement": "ALT or AST >=5 * ULN, n/N1 (%)", "setting": "ALT or AST; 30 mg QD", "value": "(0.4) %"}, {"measurement": "ALT or AST >=10 * ULN, n/N1 (%)", "setting": "ALT or AST; 30 mg QD", "value": 0, "unit": "%"}, {"measurement": "ALT or AST >=20 * ULN, n/N1", "setting": "ALT or AST; 30 mg QD", "value": 0}, {"measurement": "Potential Hy's Law (ALT or AST >= 3 * ULN AND Bilirubin Total >= 2 * ULN AND ALP < 2 * ULN), n/N1", "setting": "ALT or AST; 30 mg QD", "value": 0}, {"measurement": "ALT or AST >=1 * ULN, n/N1 (%)", "setting": "ALT or AST; 60 mg QD", "value": "(12.3) %"}, {"measurement": "ALT or AST >=1.5 * ULN, n/N1 (%)", "setting": "ALT or AST; 60 mg QD", "value": "(3.1) %"}, {"measurement": "ALT or AST >=2 * ULN, n/N1 (%)", "setting": "ALT or AST; 60 mg QD", "value": "(1.8) %"}, {"measurement": "ALT or AST >=5 * ULN, n/N1 (%)", "setting": "ALT or AST; 60 mg QD", "value": "(0.4) %"}, {"measurement": "ALT or AST >=10 * ULN, n/N1 (%)", "setting": "ALT or AST; 60 mg QD", "value": 0, "unit": "%"}, {"measurement": "ALT or AST >=20 * ULN, n/N1", "setting": "ALT or AST; 60 mg QD", "value": 0}, {"measurement": "Potential Hy's Law (ALT or AST >= 3 * ULN AND Bilirubin Total >= 2 * ULN AND ALP < 2 * ULN), n/N1", "setting": "ALT or AST; 60 mg QD", "value": 0}]}
